Patent USRE46907E1, “Suppression of cancer growth and metastasis using nordihydroguaiaretic acid derivatives with metabolic modulators” (THE JOHNS HOPKINS UNIVERSITY, priority 2008, dated 2018)

System: PKCδ
Experiment: Western blotting of total PKCδ and phosphor-PKCδ (Thr505) in 4T1 cells
Assay type: cell-based, mouse
Conditions: 4T1, 5 hrs; M4N 80 μM, Ro 5 μM, Ly 20 μM, Des 150 μM
Experimental: The sample volumes were adjusted by the total protein amount. Protein assay was performed by Bio-Rad Protein Assay (Bio-Rad Laboratories, Inc. Hercules, Calif.). The samples were resolved by the standard SDS-polyacrylamide gel electrophoresis and transferred to nitrocellulose membrane (Amersham Biosciences, Bjorkgatan, Sweden). The membranes were blocked with skim milk, and incubated with primary antibodies at 4° C. overnight and then with secondary antibody conjugated with horse radish peroxidase at room temperature for 2 hrs. The signals were detected by western blot chemiluminescence reagent plus (New England Nuclear Life Science Products, Boston, Mass.).

COc1ccc(C[C@@H](C)[C@@H](C)Cc2ccc(OC)c(OC)c2)cc1OC [M4N, tetra-O-methyl nordihydroguaiaretic acid]
amount of phosphorylated PKCδ at Thr505: induced phosphorylation
